“Also recorded” adds a separate entry of the source. Like-named read-outs stand apart in the source and are kept apart here.
Key:
human sAC = target: T1, human sAC (Homo sapiens, UniProt Q96PN6); test: in vitro adenylyl cyclase assay with purified human sAC protein (cAMP by Correlate-EIA); type: biochemical; details: for inhibition at 100 µM: 100 μM of compound
T1 construct: made in house
T1 sequence (Q96PN6 1-469 limits assumed): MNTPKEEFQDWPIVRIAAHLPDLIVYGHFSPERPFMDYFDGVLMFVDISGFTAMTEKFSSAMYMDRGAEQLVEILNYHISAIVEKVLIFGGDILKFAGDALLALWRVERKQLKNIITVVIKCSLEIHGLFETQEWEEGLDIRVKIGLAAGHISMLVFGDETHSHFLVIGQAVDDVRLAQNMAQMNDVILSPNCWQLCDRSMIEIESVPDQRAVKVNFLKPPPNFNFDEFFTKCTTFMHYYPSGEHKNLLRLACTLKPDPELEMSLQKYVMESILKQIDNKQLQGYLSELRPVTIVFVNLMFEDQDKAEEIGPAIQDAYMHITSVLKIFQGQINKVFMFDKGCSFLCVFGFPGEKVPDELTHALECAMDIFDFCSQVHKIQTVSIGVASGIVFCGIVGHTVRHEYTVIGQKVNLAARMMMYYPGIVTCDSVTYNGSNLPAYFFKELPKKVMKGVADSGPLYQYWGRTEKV
Method: Purified human sAC protein was used in an in vitro adenylyl cyclase assay. Purification of the protein is described in detail in Litvin et al. 2003. (J. Biol. Chem. 278:15922-15926). This paper also describes the general conditions for a sAC cyclase assay. The specific conditions for the in vitro assay are as follows.
For basal sAC activity, an assay master mixture with sufficient volume for all reactions was prepared containing:
100 U/ml creatine phosphokinase (CPK)
An aliquot of the master mixture was added to the purified human sAC. The assay mixture also included the indicated concentration of KH compound, or an equivalent volume of vehicle (i.e., DMSO) as control. The reaction was started by adding 5 mM ATP (total assay volume=100 μL). The reaction mixture was incubated at 30° C. for 30 minutes and then stopped by adding 100 μl […]. Stimulated assay conditions involve adding 40 mM bicarbonate and 5 mM CaCl2 to the above master mixture.
(§1) Cyclic AMP levels were measured in each sample using the Correlate-EIA Direct Cyclic AMP assay kit from Assay Designs as per manufacturers instructions.

[1] = test system: P. aeruginosa CyaB (a Class III adenylyl cyclase); test: Pseudomonas adenylyl cyclase assay with purified His-CyaB; type: biochemical, Pseudomonas aeruginosa; details: increasing concentrations of compound, FIG. 1 / FIG. 2
Method: (§2) FIG. 1. […] The CyaB was heterologously expressed in E. coli as a poly-histidine tagged fusion protein and purified using a nickel column. Adenylyl cyclase activity was determined by measuring cyclic AMP levels using the Correlate-EIA Direct Cyclic AMP assay kit from Assay Designs as per manufacturers instructions.
as §2, with “2.” for “1.”
P. aeruginosa CyaB (a Class III adenylyl cyclase) was heterologously expressed in E. coli as a HIS-tagged, fusion protein. Expression of the fusion protein was induced by Isopropyl β-D-1-thiogalactopyranoside (IPTG) t at 21° C. (empirically found to be best temperature for expression). The His-CyaB fusion protein was purified using a nickel affinity column according to standard protocols in the absence of any reducing agent. Eluted protein was dialyzed into storage buffer consisting of: 50 mM Tris (pH 8.5), 10 mM NaCl, 2 mM MgCl2, and 25% glycerol.
The purified CyaB was assayed for cyclase activity as follows. […]
as §1

O=C(CSc1nc2ccccc2[nH]1)N/N=C/c1ccc(O)c(O)c1 [KH7.148]
inhibition at 100 µM (human sAC; BASAL human sAC in vitro activity, read-out: % Inhibition (100 μM), hsACt-Basal): 70% | inhibition at 100 µM (human sAC; stimulated human sAC in vitro activity, read-out: % Inhibition (100 μM), hsACt-Stim.): 80% | IC50 (human sAC; BASAL activity of human sAC in vitro (just Mg-ATP, no calcium or bicarbonate), read-out: hsACt-Basal approximate IC50 (or the dose range where the IC50 should lie)): 10 to 100 µM | IC50 (human sAC; stimulated activity of human sAC in vitro (calcium and bicarbonate stimulated), read-out: hsACt-Stim. approximate IC50 (or the dose range where the IC50 should lie)): 1 to 10 µM | effect on CyaB adenylyl cyclase activity [1]: inhibitor; also recorded: decrease in the activity

From patent US9017681B2, “Adenylyl cyclases as novel targets for antibactrial interventions” (Cornell Research Foundation, Inc., priority 2007, dated 2015)
